Assay results taken from publication PMC4357015, “Structure, Function and Inhibition of the Phosphoethanolamine Methyltransferases of the Human Malaria Parasites Plasmodium vivax and Plasmodium knowlesi” (Scientific Reports, 2015).

Assays:
PfPMT = tested on: PfPMT; set-up: method as in PMID 20085640, PMID 24145416; conditions: cited from earlier work
[1] = tested on: PC biosynthesis in pem1Δpem2Δ-pYES2.1-PkPMT; assay: phospholipid analysis of yeast pem1Δpem2Δ strain expressing PkPMT; type: cell-based; conditions: 200 μM AQ
Experimental: (§1) Figure 6 PMT-dependent inhibition of PC biosynthesis by AQ and NSC158011. To assess the effect of AQ on phospholipid metabolism, […] and wild-type strains were grown in minimal medium containing 4% galactose and 2 mM ethanolamine in the absence or presence of 200 μM AQ, lipids were extracted and separated by TLC (A). Each lipid class was scrapped off the TLC plate and quantified by measuring phosphorus (B). The effect of NSC158011 on phospholipid biosynthesis was determined by [33P] orthophosphoric acid labeling as described in Material and Methods. Lipids were separated by TLC (C) and quantified by liquid scintillation spectrometry (D). For all assays, data were used to calculate the PC/PI + PA ratio. The data are represented as the mean ± S.D. of at least two independent experiments.
(§2) BY4741-pYes2.1 (wild-type) strains and the pem1Δpem2Δ strains harboring pYES2.1 vector, pYES2.1-PkPMT, pYES2.1-PvPMT or pYES2.1-PfPMT were pre-grown to mid-log phase at 30°C in SG-URA medium supplemented with Etn (2 mM) and Cho (2 mM). […] Each lipid class was excised from the plate and quantified by measuring phosphorus. […] After the growth, lipids were extracted and analyzed as described above. […] The resolved radioactive lipids were visualized by Phosphorimager (GE Typhoon) and quantified by liquid scintillation spectrometry as described.

[2] = tested on: PC biosynthesis in pem1Δpem2Δ-pYES2.1-PvPMT; assay: phospholipid analysis of yeast pem1Δpem2Δ strain expressing PvPMT; type: cell-based; conditions: 200 μM AQ
Experimental: as §1, §2

Compound: CCN(CC)Cc1cc(Nc2ccnc3cc(Cl)ccc23)ccc1O [AQ, amodiaquine]
- mode of inhibition of PfPMT (PfPMT): non-competitive inhibitors
- effect on the synthesis of PE [1]: little to no effect
- effect on the synthesis of PE [2]: little to no effect
